Source: US20120302598A1, “IMIDAZOPYRIDINONES” (PFIZER LIMITED, priority 2007, published 2012)
Where “and” joins values, the source holds several entries; their conditions need not be identical. Identical values can stand only once.

Tests used:
TLR7 = biological target: T1, TLR7 (Homo sapiens, UniProt Q9NYK1); assay: PBL/HCV replicon bioassay; assay type: cell-based; conditions: read-out: EC50 (nM) (n = no. of experiments)
T1 construct: PBL contain as a subpopulation plasmacytoid dendritic cells which are the natural interferon producing cells; endogenous in cells; host or cells: peripheral blood lymphocytes (PBL), containing plasmacytoid dendritic cells
T1 sequence (Q9NYK1 27-1049): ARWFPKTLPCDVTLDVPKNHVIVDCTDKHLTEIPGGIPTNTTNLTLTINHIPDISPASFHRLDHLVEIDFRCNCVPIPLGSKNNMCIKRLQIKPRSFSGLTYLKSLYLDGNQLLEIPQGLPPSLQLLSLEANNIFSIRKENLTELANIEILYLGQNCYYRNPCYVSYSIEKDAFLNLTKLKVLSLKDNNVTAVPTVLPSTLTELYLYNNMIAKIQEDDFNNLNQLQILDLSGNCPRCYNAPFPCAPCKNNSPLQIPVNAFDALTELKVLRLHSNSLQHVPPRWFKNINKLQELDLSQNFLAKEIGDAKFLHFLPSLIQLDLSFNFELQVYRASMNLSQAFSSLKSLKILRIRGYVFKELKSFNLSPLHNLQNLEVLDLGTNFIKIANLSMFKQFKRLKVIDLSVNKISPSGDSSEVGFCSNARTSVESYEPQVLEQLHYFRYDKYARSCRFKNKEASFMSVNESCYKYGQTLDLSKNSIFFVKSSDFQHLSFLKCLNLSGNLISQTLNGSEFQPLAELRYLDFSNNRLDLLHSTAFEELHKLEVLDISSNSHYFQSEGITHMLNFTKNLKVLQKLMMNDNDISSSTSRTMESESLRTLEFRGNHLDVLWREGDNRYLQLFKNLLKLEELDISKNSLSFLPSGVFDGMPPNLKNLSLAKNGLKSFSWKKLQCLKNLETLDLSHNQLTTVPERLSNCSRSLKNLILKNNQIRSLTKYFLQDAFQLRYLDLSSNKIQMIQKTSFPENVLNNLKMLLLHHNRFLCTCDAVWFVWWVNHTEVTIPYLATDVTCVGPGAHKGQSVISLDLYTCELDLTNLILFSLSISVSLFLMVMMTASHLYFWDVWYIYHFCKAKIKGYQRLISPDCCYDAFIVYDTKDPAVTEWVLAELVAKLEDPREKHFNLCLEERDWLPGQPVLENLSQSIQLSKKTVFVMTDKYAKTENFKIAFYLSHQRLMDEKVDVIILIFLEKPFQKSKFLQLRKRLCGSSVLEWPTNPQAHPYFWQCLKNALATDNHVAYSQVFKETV
Source text: EMCV: Encephalomyocarditis virus IRES: Internal ribosmomal entry site Huh: Huh-7 human hepatoma cell line 7 (parental cells used to generate HCV replicon cell lines) IUC: luciferase ubi: ubiquitin neo: neomycin ET: glutamic acid, threonine (cell culture adaptive mutations in the replicon used in the assay) RPMI-FCS: Roswell Park Memorial Institute (cell culture medium for PBL)—Foetal Calf Serum PBL: peripheral blood lymphocytes
PBL contain as a subpopulation plasmacytoid dendritic cells which are the natural interferon producing cells during an infection and as such are an excellent model in which to profile interferon inducers. As an extremely sensitive antiviral bioassay, supernatant taken from PBL is assayed for antiviral activity in the HCV replicon system.
The HCV replicon (Huh-5-2[l389 luc-ubi-neo-NS3-3′/ET]) is an in vitro model of HCV replication in which the luciferase reporter is incorporated into HCV sequences and stably maintained in the human hepatoma cell line Huh-7. The firefly luciferase reporter is expressed as a luciferase-ubiquitin-neomycin phosphotransferase fusion protein which is cleaved by host proteases to release luciferase. […] Firefly luciferase activity is detected using a Bright-Glo™ Luciferase Assay System manufactured by Promega. […]

[1] = tested on: HCV replicon containing cells; assay: Direct response of HCV replicon containing cells to TLR agonists; assay type: cell-based, human; conditions: compound applied directly to replicon cells, not via PBL conditioned medium

EC50 (TLR7) | Compound | direct response of HCV replicon containing cells to the TLR agonist [1]
698 nM and 1240 nM and 1160 nM and 3700 nM and 475 nM and 1430 nM and 1040 nM and 583 nM and 1010 nM and 737 nM | Cc1ccc(Cn2c(=O)[nH]c3c(N)nc(OCC4CCCO4)cc32)cn1 (stereo not drawn) [Example 5, 4-Amino-1-(6-methyl-pyridin-3-ylmethyl)-6-(tetrahydro-furan-2-R/S-ylmethoxy)-1,3-dihydro-imidazo[4,5-c]pyridin-2-one] | –
> 4000 nM and 1920 nM and 1000 nM and 1450 nM and 1940 nM and 1470 nM and 1250 nM and 1580 nM | Cc1ccc(Cn2c(=O)[nH]c3c(N)nc(OC[C@H]4CCCO4)cc32)cn1 [Example 6, 4-Amino-1-(6-methyl-pyridin-3-ylmethyl)-6-(tetrahydro-furan-2-R-ylmethoxy)-1,3-dihydro-imidazo[4,5-c]pyridin-2-one] | –
– | CC(C)Cn1cnc2c(N)nc3ccccc3c21 [Imiquimod] | do not respond directly
